Measurements: patent US7169574B2, “Fluorescence detection of proteases or peptidases” (Institut National de la Sante et de la Recherche Medicale …, priority 2000, dated 2007)
Values joined by “and” are separate entries in the source; they are usually repeats but may differ in a detail not shown here. Equal values may be shown once. Numbered stars: 1 amine (or outer) side, 2 acyl side, 3 side chain; on linkers, the order of the positions; unused ones are H or OH. Square brackets hold non-standard residues; d marks the D form. Primed or numbered codes have the meaning given here. Ends that are not written are not given here. PyA″ = pyrenylalanine, O=C([C@H](Cc1ccc2ccc3cccc4ccc1c2c34)N[*:1])[*:2]; Phe(4-NO2) = N[C@@H](Cc1ccc([N+](=O)[O-])cc1)C(=O)O

Tests used:
ECE [1] = target: T1, ECE (Homo sapiens, UniProt P42892); assay: ECE inhibition test, fluorescence reading on 96-well microplate (Examples 3 and 4); assay type: biochemical; conditions: for fluorescence intensity measured for each well: excitation 340 nm, emission 400 nm, gain 85, low value = strong inhibition, blank 67/68, control 1081/1094
T1 construct: made in house; host or cells: Cos-1 cells or CHO cells
T1 sequence (P42892 1-754 isoform P42892-3): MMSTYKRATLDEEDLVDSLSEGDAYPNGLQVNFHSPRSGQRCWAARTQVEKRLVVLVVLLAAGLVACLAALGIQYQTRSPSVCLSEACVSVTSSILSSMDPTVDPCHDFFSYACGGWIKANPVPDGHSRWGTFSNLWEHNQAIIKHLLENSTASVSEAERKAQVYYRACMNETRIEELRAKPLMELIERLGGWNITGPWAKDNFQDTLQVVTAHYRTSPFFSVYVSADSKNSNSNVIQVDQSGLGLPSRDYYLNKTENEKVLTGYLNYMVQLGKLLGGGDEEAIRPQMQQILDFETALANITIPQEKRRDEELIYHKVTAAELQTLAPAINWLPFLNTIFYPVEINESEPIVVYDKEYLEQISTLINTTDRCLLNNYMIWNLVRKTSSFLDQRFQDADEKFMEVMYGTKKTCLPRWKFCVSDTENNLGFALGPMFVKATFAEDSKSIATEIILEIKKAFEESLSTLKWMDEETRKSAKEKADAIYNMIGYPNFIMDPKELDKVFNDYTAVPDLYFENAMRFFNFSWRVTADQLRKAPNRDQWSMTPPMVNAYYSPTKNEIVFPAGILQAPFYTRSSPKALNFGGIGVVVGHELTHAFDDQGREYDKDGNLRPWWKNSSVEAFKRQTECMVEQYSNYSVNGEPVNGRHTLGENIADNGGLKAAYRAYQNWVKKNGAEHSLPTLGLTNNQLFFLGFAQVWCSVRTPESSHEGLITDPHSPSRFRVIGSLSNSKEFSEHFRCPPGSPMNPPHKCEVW
Experimental: 100 μl of 50 mM Tris-maleate buffer, pH 6.5, 20 μM or 5 μM of fluorescent peptide 1s or 2s and 10 μl of a solution of ECE diluted as a function of its purity and such that the cleavage of the fluorescent substrate remains less than 5%. […] The reaction is stopped in various ways, for example heating to 90° C., abrupt cooling to 4° C., adding an organic solvent such as dioxane to 20% of the final volume, and then the reading is performed using a fluorimeter (λex=340 nm; λem=400 nm) optionally coupled to the automated analysis system. […] The controls are performed in the presence of all the reagents but without ECE or with ECE inactivated beforehand by heating at 90° C. for 5 minutes.
The inhibitory behavior of several compounds was assessed by reproducing the protocol described in Example 2.
The specific conditions selected for the assays appear below:
Preincubation is carried out for 10 minutes at 37° C. The ECE substrate is then added at an amount of 10 μM. The entire mixture is incubated for between 20 minutes and 1 hour at 37C and the reaction is then stopped either by cooling or by adding dioxane (20 μl).
The reading on cytofluor is performed at 4° C. with the following specificities: excitation 340 nm, emission 400 nm and with a gain of 85.
The assays are performed on a 96-well microplate.
The compounds were tested at two concentrations.

[2] = Stability of the fluorescence of the metabolites formed by ECE; assay type: physicochemical
Source text: The measurement of this intensity, related to a standard curve established with mixtures of the substrate and of the fluorescent metabolite formed, therefore makes it possible either to evaluate the inhibitory capacity as percentage inhibition at a set given concentration of the product P, or to precisely determine its IC50 and then its KI using the Km of the substrate and several concentrations of the product P. The extreme sensitivity of the assay makes it possible to operate in very small volumes (100 μl) with concentrations of the order of 20 μM of the substrate 1s (that is to say 2 nmole corresponding to 4.43 μg per assay) or 5 μM of the substrate 2s. The test can therefore be very easily used in 96 wells plates or more, making it possible to automate it with automatic determination of the KI values when the reading fluorimeter is connected to a computer having suitable commercial software.

ECE [3] = target: T1, ECE; assay: HPLC analysis of products formed on incubation with ECE; assay type: biochemical; conditions: single cleavage at the PyA-pNF peptide bond
Experimental: With regard to the products formed, the analysis thereof was carried out, in order to verify the substrate selectivity, by HPLC on a nucleosil C18 column, 7 μm/300 Å (4.6×70 mm), using a buffer B (0.038% of TFA in CH3CN/H2O, 9/1 by vol.) and a gradient of 40–47% of buffer B in 10 minutes (flow rate 1 ml/min).

[4] = target: T2, endothelin-converting enzyme (ECE) (Homo sapiens, UniProt P42892); assay: Fluorimetric ECE activity assay with fluorescent peptide substrates (96-well plates); assay type: biochemical; conditions: 50 mM Tris-maleate buffer, pH 6.5; calculated using the ENZFITTER program; read-out: Km (affinity constant of the enzyme for a substrate)
T2 construct: made in house; host or cells: Cos-1 cells or CHO cells
T2 sequence (P42892 1-754 isoform P42892-3): T1 sequence (P42892 1-754 isoform P42892-3)
Experimental: Various preparations containing ECE can be used, such as, for example, recombinant human ECE-1c expressed in Cos-1 cells (Shimada et al., J. Biol. Chem. (1994) 269, 18275–18278) or CHO cells (Xu et al. Cell (1994) 78, 473–485).
In all cases, the presence of the enzyme is tested by Western blotting using an antibody and its concentration is evaluated by comparison with the purified enzyme.
The ECE activity is determined in 96-well plates, generally under the following conditions:
100 μl of 50 mM Tris-maleate buffer, pH 6.5, 20 μM or 5 μM of fluorescent peptide 1s or 2s and 10 μl of a solution of ECE diluted as a function of its purity and such that the cleavage of the fluorescent substrate remains less than 5%. […] The reaction is stopped in various ways, for example heating to 90° C., abrupt cooling to 4° C., adding an organic solvent such as dioxane to 20% of the final volume, and then the reading is performed using a fluorimeter (λex=340 nm; λem=400 nm) optionally coupled to the automated analysis system. The use of a network fluorimeter considerably further increases the sensitivity of the assay by reading the fluorescence at 377 nm. […]
The KI values for the inhibitors can be determined automatically using the degradation percentages at various concentrations and comparison with a standard range. […]

| fluorescence intensity measured for each well (ECE [1]; compound at 5 × 10^−6 M) | fluorescence intensity measured for each well (ECE [1]; compound at 10^−6 M) | Compound | fluorescence of the metabolite over time [2] | further results |
| --- | --- | --- | --- | --- |
| 1043 and 1077 | 1124 and 1106 | O=C(O)CC(=O)NC(CS)Cc1ccccc1 (centres unmarked) [R, retrothiorphan] | – | – |
| – | – | Ac-Ser-Gly-PyA-Lys-Ala (Ac-SG[PyA″]KA) [peptide 3m, fluorescent metabolite of 3s formed by ECE] | not modified over several hours | – |
| – | – | Ac-Ser-Gly-PyA-Lys-Ala-Phe-Ala-pNF-Gly-Lys NH2 (Ac-SG[PyA″]KAFA[Phe(4-NO2)]GK-NH2; SMILES CC(=O)N[C@@H](CO)C(=O)NCC(=O)N[C@@H](Cc1ccc2ccc3cccc4ccc1c2c34)C(=O)N[C@@H](CCCCN)C(=O)N[C@@H](C)C(=O)N[C@@H](Cc1ccccc1)C(=O)N[C@@H](C)C(=O)N[C@@H](Cc1ccc([N+](=O)[O-])cc1)C(=O)NCC(=O)N[C@@H](CCCCN)C(N)=O) [peptide 3s, fluorogenic ECE substrate] | – | metabolites produced when incubated with ECE (ECE [3]): only two metabolites |
| 1095 and 1119 | 1117 and 1093 | NCCCC[C@H](N[C@@H](CCc1ccccc1)C(=O)O)C(=O)N1CCC[C@H]1C(=O)O [L, lysinopril] | – | – |
| – | – | Ac-Ile-Ile-PyA-pNF-Asn-Thr-Pro-Glu-His-Val-Val-Pro-Tyr-Gly-Leu-Gly-Ser-COOH (Ac-II[PyA″][Phe(4-NO2)]NTPEHVVPYGLGS-OH; SMILES CC[C@H](C)[C@H](NC(C)=O)C(=O)N[C@H](C(=O)N[C@@H](Cc1ccc2ccc3cccc4ccc1c2c34)C(=O)N[C@@H](Cc1ccc([N+](=O)[O-])cc1)C(=O)N[C@@H](CC(N)=O)C(=O)N[C@H](C(=O)N1CCC[C@H]1C(=O)N[C@@H](CCC(=O)O)C(=O)N[C@@H](Cc1c[nH]cn1)C(=O)N[C@H](C(=O)N[C@H](C(=O)N1CCC[C@H]1C(=O)N[C@@H](Cc1ccc(O)cc1)C(=O)NCC(=O)N[C@@H](CC(C)C)C(=O)NCC(=O)N[C@@H](CO)C(=O)O)C(C)C)C(C)C)[C@@H](C)O)[C@@H](C)CC) [peptide 1s, fluorogenic ECE substrate] | – | Km [4]: 22.1 ± 0.9 µM; metabolites produced when incubated with ECE (ECE [3]): only two metabolites |
| – | – | Ac-Arg-Pro-Lys-Gln-Glu-PyA [peptide 2m] | not modified over several hours | – |
| 140 and 133 | 455 and 459 | CC(C)C[C@H](NP(=O)(O)O[C@@H]1O[C@@H](C)[C@H](O)[C@@H](O)[C@H]1O)C(=O)N[C@@H](Cc1c[nH]c2ccccc12)C(=O)O [P, phosphoramidon] | – | inhibitory behavior on ECE (ECE [1]; Table II, 10^−6 M and 5 × 10^−6 M): entirely verified |
| – | – | Ac-Ile-Ile-PyA (Ac-Ile-Ile-[PyA″]) [peptide 1m, fluorescent metabolite of 1s formed by ECE] | not modified over several hours | – |

| Compound | fluorescence intensity measured for each well (ECE [1]; compound at 5 × 10^−6 M) | fluorescence intensity measured for each well (ECE [1]; compound at 10^−6 M) | fluorescence of the metabolite over time [2] | further results |
| --- | --- | --- | --- | --- |
| O=C(O)CNC(=O)C(CS)Cc1ccccc1 (centres unmarked) [T, thiorphan] | 1109 and 1121 | 1124 and 1127 | – | – |
| C[C@H](CS)C(=O)N1CCC[C@H]1C(=O)O [C, captopril] | 1128 and 1121 | 1086 and 1089 | – | – |
